# According to ChEMBL document CHEMBL1201862, “PubChem BioAssay data set” (2004):
#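 How tested: cells in 96-well plates exposed to compound for 48 hours at five concentrations. Abbreviation: GI50, concentration required for 50% inhibition of growth.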 Activity calls are given as the source filed them. Cut-off read from the data, not from the text of the source: active = GI50 up to about 1.1 µM and inactive = higher.
# Experiments:
# Experiment in all cases: growth of human tumour cells (NCI), 48 h
# [1] = tested on: 786-0
# [2] = tested on: A549
# [3] = tested on: ACHN
# [4] = tested on: BT-549
# [5] = tested on: CAKI-1
# [6] = tested on: DU-145
# [7] = tested on: HCT-15
# [8] = tested on: HOP-92
# [9] = tested on: K562
# [10] = tested on: MCF7
# [11] = tested on: NCI-H460
# [12] = tested on: NCI/ADR-RES
# [13] = tested on: RPMI-8226
# [14] = tested on: SF-539
# [15] = tested on: SN12C
# [16] = tested on: SR
# [17] = tested on: UO-31
# [18] = tested on: EKVX
# [19] = tested on: NCI-H226
# [20] = tested on: NCI-H522
Structure (SMILES),GI50 [1],GI50 [2],GI50 [3],GI50 [4],GI50 [5],GI50 [6],GI50 [7] [µM],GI50 [8],GI50 [9],GI50 [10],GI50 [11],GI50 [12],GI50 [13],GI50 [14],GI50 [15],GI50 [16],GI50 [17],GI50 [18],GI50 [19],GI50 [20]
CCOC(=O)c1c(-c2ccc(Cl)cc2)c(C#N)c(=S)n(C2OC(COC(C)=O)C(OC(C)=O)C(OC(C)=O)C2OC(C)=O)c1-c1ccccc1 (stereo not drawn),> 100 µM (inactive),> 100 µM (inactive),> 100 µM (inactive),> 100 µM (inactive),> 100 µM (inactive),> 100 µM (inactive),> 100,12.7 µM (inactive),> 100 µM (inactive),> 100 µM (inactive),> 100 µM (inactive),> 100 µM (inactive),> 100 µM (inactive),> 100 µM (inactive),> 100 µM (inactive),> 100 µM (inactive),> 100 µM (inactive),–,–,–
CN(C)c1nc(NC23CC4CC(CC(C4)C2)C3)nc(N(C)C)n1,15.7 µM (inactive),8.59 µM (inactive),22.3 µM (inactive),21.4 µM (inactive),37.6 µM (inactive),16.4 µM (inactive),5.15,10.6 µM (inactive),2.81 µM (inactive),8.15 µM (inactive),16.6 µM (inactive),23.4 µM (inactive),3.58 µM (inactive),21.8 µM (inactive),27.2 µM (inactive),14.5 µM (inactive),31.4 µM (inactive),11.3 µM (inactive),20.4 µM (inactive),–
COC(=O)CCNC(=O)OCc1ccccc1,> 100 µM (inactive),> 100 µM (inactive),> 100 µM (inactive),> 100 µM (inactive),> 100 µM (inactive),> 100 µM (inactive),> 100,–,> 100 µM (inactive),> 100 µM (inactive),> 100 µM (inactive),> 100 µM (inactive),> 100 µM (inactive),> 100 µM (inactive),> 100 µM (inactive),> 100 µM (inactive),> 100 µM (inactive),> 100 µM (inactive),> 100 µM (inactive),> 100 µM (inactive)
COc1nc(-c2c[nH]c3ccccc23)cnc1N,15.6 µM (inactive),31.2 µM (inactive),14.2 µM (inactive),33.7 µM (inactive),24.6 µM (inactive),23.4 µM (inactive),22.8,0.0306 µM (active),33.6 µM (inactive),2.85 µM (inactive),26.4 µM (inactive),38.5 µM (inactive),1.01 µM (active),33.7 µM (inactive),5.87 µM (inactive),15 µM (inactive),21.2 µM (inactive),6.35 µM (inactive),–,–
O=C(NC(=O)c1cc(-c2ccccc2)n[nH]1)c1ccccc1,> 100 µM (inactive),> 100 µM (inactive),> 100 µM (inactive),> 100 µM (inactive),> 100 µM (inactive),> 100 µM (inactive),> 100,> 100 µM (inactive),77.8 µM (inactive),> 100 µM (inactive),> 100 µM (inactive),> 100 µM (inactive),–,> 100 µM (inactive),> 100 µM (inactive),24 µM (inactive),> 100 µM (inactive),> 100 µM (inactive),> 100 µM (inactive),70.8 µM (inactive)
CC1Oc2c(c(=O)oc3ccccc23)[C@@]1(C)CC1C[C@H](C)C(=O)O1 (stereo partly drawn),16.4 µM (inactive),87.7 µM (inactive),24.4 µM (inactive),30.8 µM (inactive),19.1 µM (inactive),23.3 µM (inactive),18.3,–,16.8 µM (inactive),34.4 µM (inactive),> 10 µM (inactive),32.7 µM (inactive),33.3 µM (inactive),25.2 µM (inactive),> 10 µM (inactive),> 10 µM (inactive),27.6 µM (inactive),> 100 µM (inactive),> 100 µM (inactive),19.5 µM (inactive)
[O-][N+](CCO)(CCO)c1ncnc2[nH]cnc12,> 100 µM (inactive),> 100 µM (inactive),> 100 µM (inactive),> 100 µM (inactive),> 100 µM (inactive),> 100 µM (inactive),> 100,–,> 100 µM (inactive),76.6 µM (inactive),–,> 100 µM (inactive),> 100 µM (inactive),–,> 100 µM (inactive),> 100 µM (inactive),> 100 µM (inactive),> 100 µM (inactive),> 100 µM (inactive),> 100 µM (inactive)
N#Cc1c(Cl)c2cc([N+](=O)[O-])ccc2n2c1nc1ccccc12,2.01 µM (inactive),35.8 µM (inactive),4.29 µM (inactive),19.5 µM (inactive),2.14 µM (inactive),3.5 µM (inactive),0.933,2.77 µM (inactive),1.85 µM (inactive),1.17 µM (inactive),14.6 µM (inactive),5.07 µM (inactive),3.94 µM (inactive),2.15 µM (inactive),4.44 µM (inactive),–,2.58 µM (inactive),15.8 µM (inactive),10.6 µM (inactive),2.54 µM (inactive)
C1CSCCSCCSCCSCCS1,> 100 µM (inactive),> 100 µM (inactive),> 100 µM (inactive),> 100 µM (inactive),> 100 µM (inactive),> 100 µM (inactive),> 100,> 100 µM (inactive),> 100 µM (inactive),> 100 µM (inactive),> 100 µM (inactive),> 100 µM (inactive),> 100 µM (inactive),> 100 µM (inactive),> 100 µM (inactive),–,> 100 µM (inactive),> 100 µM (inactive),> 100 µM (inactive),> 100 µM (inactive)
Brc1ccc(-c2[nH]c3ccccc3c2/C=N\Nc2ccc(-c3nc4ccccc4[nH]3)cc2)cc1,< 0.01 µM (active),< 0.01 µM (active),< 0.01 µM (active),2.08 µM (inactive),< 0.01 µM (active),< 0.01 µM (active),< 0.01,–,< 0.01 µM (active),< 0.0171 µM (active),< 0.01 µM (active),< 0.01 µM (active),< 0.01 µM (active),< 0.01 µM (active),< 0.01 µM (active),< 0.01 µM (active),< 0.01 µM (active),–,< 0.01 µM (active),< 0.01 µM (active)
CNC(=O)CN(C)C(=O)CCC(=O)N(C)C,> 100 µM (inactive),> 100 µM (inactive),> 100 µM (inactive),> 100 µM (inactive),> 100 µM (inactive),> 100 µM (inactive),> 100,> 100 µM (inactive),> 100 µM (inactive),> 100 µM (inactive),> 100 µM (inactive),> 100 µM (inactive),> 100 µM (inactive),> 100 µM (inactive),> 100 µM (inactive),–,> 100 µM (inactive),> 100 µM (inactive),> 100 µM (inactive),> 100 µM (inactive)
